Test results as given in patent publication US6395759B1, “Substituted benzamide derivatives and pharmaceutical compositions containing them” (SmithKline Beecham p.l.c., priority 1999, dated 2002).

Tests used:
[1] = target: novel receptor obtainable from rat forebrain tissue; test: [3H]-Compound A radioligand binding assay; conditions: competition with [3H]-Compound A (20 nM)
Experimental: WO 92/22293 (SmithKline Beecham) discloses compounds having anti-convulsant activity, including inter alia the compound trans-(+)-6-acetyl-4S-(4-fluorobenzoylamino)-3,4-dihydro-2,2-dimethyl-2H-1-benzopyran-3R-ol (hereinafter referred to as Compound A). […] The affinity of test compounds to the novel receptor site is assessed as follows.
Whole forebrain tissue is obtained from rats. The tissue is first homogenised in buffer (usually 50 mM Tris/HCl, pH 7.4). The homogenised tissue is washed by centrifugation and resuspension in the same buffer, then stored at −70° C. until used.
To carry out the radioligand binding assay, aliquots of tissue prepared as above (usually at a concentration of 1-2 mg protein/ml) are mixed with aliquots of [3H]-Compound A dissolved in buffer. The final concentration of [3H]-Compound A in the mixture is usually 20 nM. The mixture is incubated at room temperature for 1 hour. [3H]-Compound A bound to the tissue is then separated from unbound [3H]-Compound A by filtration through Whatman GF/B glass fibre filters. The filters are then washed rapidly with ice-cold buffer. The amount of radioactivity bound to the tissue trapped on the filters is measured by addition of liquid scintillation cocktail to the filters followed by counting in a liquid scintillation counter. […]

[2] = test system: electrically-induced seizures in mice; test: Maximal electroshock seizure threshold (MEST) test; format: in vivo; conditions: 10 mg/kg po, suspension in methyl cellulose, one hour post dosing
Experimental: The maximal electroshock seizure threshold (MEST) test in rodents is particularly sensitive for detecting potential anticonvulsant properties^1. In this model, anticonvulsant agents elevate the threshold to electrically-induced seizures whilst proconvulsants lower the seizure threshold.
Mice (naive, male, Charles River, U.K. CD-1 strain, 25-30 g) are randomly assigned to groups of 10-20 and dosed orally or intraperitoneally at a dose volume of 10 ml/kg with various doses of compound (0.3-300 mg/kg) or vehicle. Mice are then subjected at 30 or 60 min post dose to a single electroshock (0.1 sec, 50 Hz, sine wave form) administered via corneal electrodes. The mean current and standard error required to induce a tonic seizure in 50% (CC50) of the mice in a particular treatment group is determined by the ‘up and down’ method of Dixon and Mood (1948)^2. Statistical comparisons between vehicle- and drug-treated groups are made using the method of Litchfield and Wilcoxon (1949)^3.
In control animals the CC50 is usually 14-18 mA. […] If a tonic convulsion does occur, then the current is decreased, and so on until all the animals in the group have been tested.
The percentage increase or decrease in CC50 for each group compared to the control is calculated. […]

pKi value [1]: greater than 7
Compound: COc1cc(C(C)(C)C)ccc1C(=O)Nc1cccc(C2CCCN2)c1 (racemic) [Example 1, (±)-4-tert-Butyl-2-methoxy-N-(3-pyrrolidin-2-yl-phenyl)-benzamide, monohydroclhloride]
increase in seizure threshold (CC50) compared to control [2]: 53%
